Patent US9868748B2, “Thiazolopyrrolidine inhibitors of ROR- γ” (Vitae Pharmaceuticals, Inc., priority 2013, dated 2018)

Biological target: recombinant RORγ Ligand Binding Domain (LBD) protein (Homo sapiens (Human), UniProt P51449)
Experiment: Radio-Ligand RORγ Binding Assay (Assay 1)
Details: competition with 25-hydroxy [26,27-3H]-cholesterol, SPA; Table 9; read-out: RORγ Binding Ki Range*
Protocol: Radio-Ligand RORγ Binding Assay (Assay 1)
Compounds of the present invention were tested for ability to bind to RORγ in a cell-free competition assay with commercially available radio-ligand (RL), 25-hydroxy [26,27-^3H]— cholesterol (PerkinElmer, Cat. # NET674250UC), for a ligand binding site on a recombinant RORγ Ligand Binding Domain (LBD) protein expressed as a 6×His-Glutathione-S-Transferase (GST) fusion (“6×His” disclosed as SEQ ID NO: 2). The assay was performed in 96-well SPA plates (PerkinElmer, Cat. #1450-401) in 50 mM HEPES buffer, pH 7.4, containing 150 mM NaCl, 5 mM MgCl2, 10% (v/v) glycerol, 2 mM CHAPS, 0.5 mM β-octylglucopyranoside and 5 mM DTT. Tested compounds were dissolved in DMSO, and semi-log (3.162×) serial dilutions of the compounds were prepared in the same solvent. Two μL of the DMSO solutions were mixed with 28 μL of 8.6 nM 25-hydroxy [26,27-^3H]— cholesterol and 50 μL of 24 nM RORγ LBD. The plate was shaken at 700 rpm for 20 min and incubated for 10 min at rt, after which 40 μL of poly-Lys YSi SPA beads (PerkinElmer, Cat. # RPNQ0010) were added to achieve 50 μg of the beads per well. The plate was incubated on an orbital shaker for 20 min and then for 10 min without agitation at rt. SPA signal for tritium beta radiation was registered on PerkinElmer Microbeta plate reader. Percent inhibition values were calculated based on the high signal obtained with DMSO control and the low signal observed with 10 μM standard RORγ inverse agonist T0901317 (SigmaAldrich, Cat. # T2320). The percent inhibition vs. concentration data were fit into a four-parameter model, and […] values were calculated from the fit as the concentrations corresponding to the inflection points on the dose-response curves. Inhibitory constants (Ki) were calculated using the following equation, where [RL] is the concentration in the assay and KD is a dissociation constant of 25-hydroxy [26,27-^3H]-cholesterol: […]

Chain of recombinant RORγ Ligand Binding Domain (LBD) protein (P51449 269-508): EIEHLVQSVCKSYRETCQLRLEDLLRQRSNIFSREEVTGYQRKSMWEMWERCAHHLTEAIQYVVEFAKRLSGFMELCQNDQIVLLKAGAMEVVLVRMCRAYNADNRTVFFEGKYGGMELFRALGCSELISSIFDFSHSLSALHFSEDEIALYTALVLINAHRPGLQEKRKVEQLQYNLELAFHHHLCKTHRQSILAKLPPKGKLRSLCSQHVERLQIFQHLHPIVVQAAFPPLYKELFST

Row | Compound | Ki [nM]
1 | CCS(=O)(=O)c1ccc(CC(=O)Nc2nc3c(s2)CN(c2ncc(-c4ccc(=O)n(C)c4)cn2)[C@H]3C(C)C)cc1 | > 1000
2 | CCS(=O)(=O)c1ccc(CNC(=O)c2nc3c(s2)CN(c2ncc(CO)c(C(F)(F)F)n2)[C@H]3C(C)C)cc1 | > 1000
3 | COC(=O)c1cnc(N2Cc3sc(NC(=O)Cc4ccc(S(C)(=O)=O)cc4)nc3[C@@H]2C(C)C)nc1 | > 1000
4 | Cc1cc(C(F)(F)F)nc(N2Cc3sc(Cc4ccc(C#N)cc4C)nc3[C@H]2C(C)C)n1 | > 1000
5 | CCS(=O)(=O)c1ccc(CNC(=O)c2nc3c(s2)CN(c2ncc(C(F)(F)F)cn2)[C@H]3C(C)C)cc1 | > 1000
6 | CC(C)[C@H]1c2nc(C(=O)NCc3ccc(S(C)(=O)=O)cc3)sc2CN1Cc1ccn(C)c(=O)c1 | > 1000
7 | CCS(=O)(=O)c1ccc(CC(=O)Nc2nc3c(s2)CN(Cc2ccc(S(C)(=O)=O)cc2)C3(C)C)cc1 | > 1000
8 | CC(C)[C@H]1c2nc(NC(=O)Cc3ccc(S(C)(=O)=O)cc3F)sc2CN1Cc1cnc(C(F)(F)F)nc1 | 100 to 1000
9 | CC[C@@H]1c2nc(NC(=O)Cc3ccc(S(=O)(=O)CC)cc3)sc2CN1Cc1ccc(F)cn1 | 100 to 1000
10 | CC(C)[C@H]1c2nc(NC(=O)Cc3ccc(S(C)(=O)=O)cc3)sc2CN1Cc1ncc(Cl)cn1 | 100 to 1000
11 | CCS(=O)(=O)c1ccc(CC(=O)Nc2nc3c(s2)CN(C(=O)Cc2ccccc2)[C@@H]3C(C)C)cc1 | 100 to 1000
12 | CC(C)[C@H]1c2nc(NC(=O)Cc3ccc(S(C)(=O)=O)cc3)sc2CN1Cc1ncc(Cl)cc1F | 100 to 1000
13 | CCS(=O)(=O)c1ccc(CNC(=O)c2nc3c(s2)CN(CC2CNCCO2)[C@H]3C(C)C)cc1 (stereo partly shown) | > 1000
14 | CCS(=O)(=O)c1ccc(CC(=O)Nc2nc3c(s2)CN(C[C@H]2C[C@H](C(N)=O)C2)[C@H]3C(C)C)cc1 (relative stereo) | 100 to 1000
15 | CCS(=O)(=O)c1ccc(CC(=O)Nc2nc3c(s2)CN(Cc2nccc(C(F)(F)F)n2)[C@@H]3C(C)C)cc1 | 100 to 1000
16 | CCS(=O)(=O)c1ccc(CC(=O)Nc2nc3c(s2)CN(c2ncc(C(F)(F)F)cn2)C3(C)C)cc1 | 100 to 1000
17 | Cc1ccc(CN2Cc3sc(NC(=O)Cc4ccc(S(C)(=O)=O)cc4)nc3[C@H]2C(C)C)cc1 | 100 to 1000
18 | CC(C)[C@H]1c2nc(C(=O)NCc3ccc(S(C)(=O)=O)cc3)sc2CN1Cc1ncc(Cl)cn1 | 100 to 1000
19 | CC(C)[C@H]1c2nc(C(=O)NCc3ccc(S(C)(=O)=O)cc3)sc2CN1Cc1ccc(C#N)cn1 | 100 to 1000
20 | CCS(=O)(=O)c1cnc(CC(=O)Nc2nc3c(s2)CN(Cc2ccc(C#N)cc2)[C@@H]3C(C)C)nc1 | > 1000
21 | CCS(=O)(=O)c1cnc(CC(=O)Nc2nc3c(s2)CN(Cc2ccc(C(F)(F)F)cc2)[C@@H]3C(C)C)nc1 | > 1000
22 | CC(C)[C@H]1c2nc(NC(=O)Cc3ccc(S(C)(=O)=O)cc3)sc2CN1c1nc(Cl)ncc1C#N | 100 to 1000

Row | Compound | Ki [nM]
23 | CC(C)[C@@H]1c2nc(NC(=O)Cc3ccc(S(C)(=O)=O)cc3)sc2CN1Cc1ccc(Br)cc1 | 100 to 1000
24 | Cc1nnc(-c2ccc(CC(=O)Nc3nc4c(s3)CN(Cc3ccc(Cl)cc3)[C@H]4C(C)C)cc2)o1 | 100 to 1000
25 | CCS(=O)(=O)c1ccc(CC(=O)Nc2nc3c(s2)CN(CC2CCNC(=O)C2)[C@H]3C(C)C)cc1 (stereo partly shown) | 100 to 1000
26 | CC[C@@H]1c2nc(NC(=O)Cc3ccc(S(C)(=O)=O)cc3)sc2CN1[C@@H](C)c1ccc(OC(F)(F)F)cc1 (single isomer, unassigned) | 100 to 1000
27 | CCS(=O)(=O)c1ccc(CNC(=O)c2nc3c(s2)CN(c2nccc(C(F)(F)F)n2)[C@H]3C(C)C)cc1 | 100 to 1000
28 | CCS(=O)(=O)c1ccc(CC(=O)Nc2nc3c(s2)CN(c2ncc(-c4ccc(=O)n(C)c4)s2)[C@H]3C(C)C)nc1 | > 1000
29 | CC(C)[C@H]1c2nc(NC(=O)Cc3ccc(S(C)(=O)=O)cc3)sc2CN1Cc1ccc(=O)n(C(F)F)n1 | > 1000
30 | CCS(=O)(=O)c1ccc(CNC(=O)c2nc3c(s2)CN(Cc2ccc(-c4nnn[nH]4)cc2)[C@H]3C(C)C)cc1 | 100 to 1000
31 | CCOC(=O)c1cnc(N2Cc3sc(C(=O)NCc4ccc(S(=O)(=O)CC)cc4)nc3[C@@H]2C(C)C)nc1C(F)(F)F | > 1000
32 | Cc1cc(C(F)(F)F)nc(N2Cc3sc(Cc4ccc(-c5nn[nH]n5)cc4C)nc3[C@H]2C(C)C)n1 | 100 to 1000
33 | Cc1ncc(CN2Cc3sc(NC(=O)Cc4ccc(S(C)(=O)=O)cc4)nc3[C@@H]2C(C)C)cn1 | 100 to 1000
34 | COC(=O)c1coc(CN2Cc3sc(NC(=O)Cc4ccc(S(C)(=O)=O)cc4)nc3[C@H]2C(C)C)n1 | > 1000
35 | CCS(=O)(=O)c1ccc(CC(=O)Nc2nc3c(s2)CN(Cc2ccc(C#N)cn2)[C@@H]3C(C)C)cc1 | 100 to 1000
36 | CC(C)[C@H]1c2nc(NC(=O)Cc3ccc(S(C)(=O)=O)cc3)sc2CN1Cc1ccn(C2CC2)c(=O)c1 | 100 to 1000
37 | CC(C)[C@@H]1c2nc(NC(=O)Cc3ccc(S(C)(=O)=O)cc3)sc2CN1Cc1ccc(C#N)cc1 | 100 to 1000
38 | CC(C)[C@H]1c2nc(C(=O)NCc3ccc(S(C)(=O)=O)cc3)sc2CN1Cc1ccc2nn[nH]c2c1 | 100 to 1000
39 | Cc1cc(C(F)(F)F)nc(N2Cc3sc(-c4ccc(C(F)(F)F)nc4)nc3[C@H]2C(C)C)n1 | > 1000
40 | CCS(=O)(=O)c1ccc(CNC(=O)c2nc3c(s2)CN(Cc2ccn(C(F)F)c(=O)c2)[C@H]3C(C)C)cc1 | 100 to 1000
41 | CCS(=O)(=O)c1ccc(CC(=O)Nc2nc3c(s2)CN([C@@H](C)Cc2ccc(F)cc2)[C@@H]3C(C)C)cc1 (single isomer, unassigned) | 100 to 1000
42 | CCS(=O)(=O)c1ccc(CC(=O)Nc2nc3c(s2)CN(Cc2ccc(C(F)(F)F)nc2)[C@@H]3C(C)C)cc1 | 100 to 1000
43 | CC(C)[C@H]1c2nc(NC(=O)Cc3ccn4ccnc4c3)sc2CN1Cc1ccc(C(F)(F)F)cc1 | 100 to 1000
44 | CC(C)[C@H]1c2nc(NC(=O)Cc3ccc(F)cc3F)sc2CN1Cc1ccc(Cl)cc1 | 100 to 1000

The remaining lines, values ahead:

Row | Ki [nM] | Compound
45 | 100 to 1000 | CC(C)[C@@H]1c2nc(NC(=O)Cc3ccc(S(C)(=O)=O)cc3)sc2CN1C(C)c1ccc(C#N)cc1 (stereo partly shown)
46 | 100 to 1000 | CC1(C)c2nc(NC(=O)Cc3ccc(S(C)(=O)=O)cc3)sc2CN1c1ncc(C(F)(F)F)cn1
47 | 100 to 1000 | CC[C@@H]1c2nc(NC(=O)Cc3ccc(S(C)(=O)=O)cc3)sc2CN1Cc1ccc(OC(F)(F)F)cc1F
48 | 100 to 1000 | CCS(=O)(=O)c1ccc(CC(=O)Nc2nc3c(s2)CN(C[C@H]2CC[C@H](C(=O)O)CC2)[C@H]3C(C)C)cc1
49 | 100 to 1000 | CCS(=O)(=O)c1ccc(CC(=O)Nc2nc3c(s2)CN(Cc2cc[n+]([O-])cc2)[C@H]3C(C)C)cc1
50 | 100 to 1000 | CCS(=O)(=O)c1ccc(CC(=O)Nc2nc3c(s2)CN(Cc2ccc(C(F)(F)F)cc2)[C@@]3(C)C(C)C)cc1
51 | 100 to 1000 | CCS(=O)(=O)c1ccc(CC(=O)Nc2nc3c(s2)CN(C[C@@H]2CC[C@@H](C(F)(F)F)NC2)[C@H]3C(C)C)nc1 (single isomer, unassigned)
52 | 100 to 1000 | CC(C)[C@H]1c2nc(C(=O)NCc3ccc(S(C)(=O)=O)cc3)sc2CN1Cc1cnc(C(F)(F)F)nc1
53 | 100 to 1000 | CCS(=O)(=O)c1ccc(CC(=O)Nc2nc3c(s2)CN(CC2CCOCC2)[C@@H]3C(C)C)cc1
54 | 100 to 1000 | CC(C)[C@H]1c2nc(NC(=O)CC3CCS(=O)(=O)CC3)sc2CN1Cc1ccc(Cl)cc1
55 | 100 to 1000 | CCS(=O)(=O)c1ccc(CC(=O)Nc2nc3c(s2)CN([C@@H](C)Cc2ccccc2)[C@@H]3C(C)C)cc1
56 | 100 to 1000 | CC[C@H]1c2nc(NC(=O)Cc3ccc(C(=O)OC)cc3)sc2CN1Cc1ccc(Cl)cc1
57 | 100 to 1000 | CCS(=O)(=O)c1ccc(CC(=O)Nc2nc3c(s2)CN(c2ncc(CO)c(C(F)(F)F)n2)[C@H]3C(C)C)cc1
58 | 100 to 1000 | CC[C@@H]1c2nc(NC(=O)Cc3ccc(S(C)(=O)=O)cc3)sc2CN1Cc1ccc(OC(F)(F)F)nc1
59 | 100 to 1000 | CCS(=O)(=O)c1ccc(CC(=O)Nc2nc3c(s2)CN(Cc2cnc(N)nc2)[C@H]3C(C)C)cc1
60 | 100 to 1000 | CCS(=O)(=O)c1ccc(CC(=O)Nc2nc3c(s2)CN(Cc2ccc(S(C)(=O)=O)cc2)[C@@H]3C(C)C)cc1
61 | 100 to 1000 | CC(C)[C@@H]1c2nc(NC(=O)Cc3ccc(S(C)(=O)=O)cc3)sc2CN1[C@@H](C)c1ccc(C(F)(F)F)cc1 (single isomer, unassigned)
62 | 100 to 1000 | Cc1ccc(CN2Cc3sc(NC(=O)Cc4ccc(S(C)(=O)=O)cc4)nc3[C@@H]2C(C)C)nn1
63 | 100 to 1000 | CC(C)[C@H]1c2nc(NC(=O)Cc3ccc(S(C)(=O)=O)cc3)sc2CN1c1ncc(C#N)c(Cl)n1
64 | < 100 | COc1cc(CN2Cc3sc(NC(=O)Cc4ccc(C#N)cc4)nc3[C@@H]2C(C)C)ccc1C#N
65 | 100 to 1000 | CCOC(=O)c1cnc(N2Cc3sc(NC(=O)Cc4ccc(S(C)(=O)=O)cc4)nc3[C@@H]2C(C)C)nc1C(F)(F)F
66 | 100 to 1000 | CCOC(=O)c1cnc(N2Cc3sc(NC(=O)Cc4ccc(S(=O)(=O)CC)cc4)nc3C2(C)C)nc1C(F)(F)F
67 | < 100 | CCS(=O)(=O)c1ccc(CC(=O)Nc2nc3c(s2)CN(CC2CCC(F)(F)CC2)[C@H]3C(C)C)cc1
